Experimental data: patent US20210045385A1, “PYRIDAZINONE-SUBSTITUTED KETOXIMES AS HERBICIDES” (FMC Corporation, priority 2018, published 2021)

What was measured:
Assay type in all cases: in vivo
[1] = tested on: ragweed (common ragweed, Ambrosia elatior); assay: Test A postemergence, visual plant response rating; conditions: for Ragweed plant response rating (0 to 100 scale): 500 g ai/ha, postemergence, 0 is no effect, 100 is complete control; for Ragweed plant response rating: Postemergence, 125 g ai/ha, 0 to 100 scale (0 no effect, 100 complete control)
Procedure, shortened: (§1)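 Greenhouse evaluation, approx. 10 days post-spray. Soil: loam + sand. Postemergence stage: 1–2 leaves, height 2–10 cm. Vehicle: non-phytotoxic solvent blend with surfactant. Score: visual injury on a 0 (no effect) to 100 (complete control) scale.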

[2] = tested on: barnyardgrass (Echinochloa crus-galli); assay: Test A postemergence, visual plant response rating; conditions: for Barnyardgrass plant response rating (0 to 100 scale): 500 g ai/ha, postemergence, 0 is no effect, 100 is complete control; for Barnyardgrass plant response rating: Postemergence, 125 g ai/ha, 0 to 100 scale (0 no effect, 100 complete control)
Procedure, shortened: as §1

[3] = tested on: pigweed (Amaranthus retroflexus); assay: Test A postemergence, visual plant response rating; conditions: for Pigweed plant response rating (0 to 100 scale): 500 g ai/ha, postemergence, 0 is no effect, 100 is complete control; for Pigweed plant response rating: Postemergence, 125 g ai/ha, 0 to 100 scale (0 no effect, 100 complete control)
Procedure, shortened: as §1

kochia (Kochia scoparia) [4] = assay: Test A postemergence, visual plant response rating; conditions: for Kochia plant response rating (0 to 100 scale): 500 g ai/ha, postemergence, 0 is no effect, 100 is complete control; for Kochia plant response rating: Postemergence, 125 g ai/ha, 0 to 100 scale (0 no effect, 100 complete control)
Procedure, shortened: as §1

[5] = tested on: blackgrass (Alopecurus myosuroides); assay: Test A postemergence, visual plant response rating; conditions: for Blackgrass plant response rating (0 to 100 scale): 500 g ai/ha, postemergence, 0 is no effect, 100 is complete control; for Blackgrass plant response rating: Postemergence, 125 g ai/ha, 0 to 100 scale (0 no effect, 100 complete control)
Procedure, shortened: as §1

[6] = tested on: galium (catchweed bedstraw, Galium aparine); assay: Test A postemergence, visual plant response rating; conditions: for Galium plant response rating (0 to 100 scale): 500 g ai/ha, postemergence, 0 is no effect, 100 is complete control; for Galium plant response rating: Postemergence, 125 g ai/ha, 0 to 100 scale (0 no effect, 100 complete control)
Procedure, shortened: as §1

corn (Zea mays) = assay: Test A postemergence, visual plant response rating; conditions: for Corn plant response rating (0 to 100 scale): 500 g ai/ha, postemergence, 0 is no effect, 100 is complete control; for Corn plant response rating: Postemergence, 125 g ai/ha, 0 to 100 scale (0 no effect, 100 complete control)
Procedure, shortened: as §1

[7] = tested on: Italian ryegrass (Lolium multiflorum); assay: Test A postemergence, visual plant response rating; conditions: for Ryegrass, Italian plant response rating (0 to 100 scale): 500 g ai/ha, postemergence, 0 is no effect, 100 is complete control; for Ryegrass, Italian plant response rating: Postemergence, 125 g ai/ha, 0 to 100 scale (0 no effect, 100 complete control)
Procedure, shortened: as §1

[8] = tested on: foxtail, giant (giant foxtail, Setaria faberii); assay: Test A postemergence, visual plant response rating; conditions: for Foxtail, Giant plant response rating (0 to 100 scale): 500 g ai/ha, postemergence, 0 is no effect, 100 is complete control; for Foxtail, Giant plant response rating: Postemergence, 125 g ai/ha, 0 to 100 scale (0 no effect, 100 complete control)
Procedure, shortened: as §1

[9] = tested on: wheat (Triticum aestivum); assay: Test A postemergence, visual plant response rating; conditions: for Wheat plant response rating (0 to 100 scale): 500 g ai/ha, postemergence, 0 is no effect, 100 is complete control; for Wheat plant response rating: Postemergence, 125 g ai/ha, 0 to 100 scale (0 no effect, 100 complete control)
Procedure, shortened: as §1

[10] = tested on: ragweed (common ragweed, Ambrosia elatior); assay: Test A preemergence, visual plant response rating; conditions: for Ragweed plant response rating: 125 g ai/ha, preemergence, 0 to 100 scale, 0 no effect, 100 complete control; for Ragweed plant response rating (0 to 100 scale): 500 g ai/ha Preemergence, approx. 10 days
Procedure, shortened: as §1

[11] = tested on: barnyardgrass (Echinochloa crus-galli); assay: Test A preemergence, visual plant response rating; conditions: for Barnyardgrass plant response rating: 125 g ai/ha, preemergence, 0 to 100 scale, 0 no effect, 100 complete control; for Barnyardgrass plant response rating (0 to 100 scale): 500 g ai/ha Preemergence, approx. 10 days
Procedure, shortened: as §1

[12] = tested on: pigweed (Amaranthus retroflexus); assay: Test A preemergence, visual plant response rating; conditions: for Pigweed plant response rating: 125 g ai/ha, preemergence, 0 to 100 scale, 0 no effect, 100 complete control; for Pigweed plant response rating (0 to 100 scale): 500 g ai/ha Preemergence, approx. 10 days
Procedure, shortened: as §1

kochia (Kochia scoparia) [13] = assay: Test A preemergence, visual plant response rating; conditions: for Kochia plant response rating: 125 g ai/ha, preemergence, 0 to 100 scale, 0 no effect, 100 complete control; for Kochia plant response rating (0 to 100 scale): 500 g ai/ha Preemergence, approx. 10 days
Procedure, shortened: as §1

[14] = tested on: Italian ryegrass (Lolium multiflorum); assay: Test A preemergence, visual plant response rating; conditions: for Ryegrass, Italian plant response rating: 125 g ai/ha, preemergence, 0 to 100 scale, 0 no effect, 100 complete control; for Ryegrass, Italian plant response rating (0 to 100 scale): 500 g ai/ha Preemergence, approx. 10 days
Procedure, shortened: as §1

[15] = tested on: foxtail, giant (giant foxtail, Setaria faberii); assay: Test A preemergence, visual plant response rating; conditions: for Foxtail, Giant plant response rating: 125 g ai/ha, preemergence, 0 to 100 scale, 0 no effect, 100 complete control; for Foxtail, Giant plant response rating (0 to 100 scale): 500 g ai/ha Preemergence, approx. 10 days
Procedure, shortened: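 Formulated in a non-phytotoxic solvent mixture including surfactant, each test chemical was sprayed onto the soil surface after sowing, or onto seedlings 2 to 10 cm high. Roughly 10 days later, plants were compared with untreated controls and rated for injury from 0 (no effect) to 100 (complete control).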

[16] = tested on: barnyardgrass (Echinochloa crus-galli); assay: Test B flooded paddy test, visual plant response rating; conditions: 250 g ai/ha, Flood, applied to paddy water, 2-leaf stage, evaluated after 13 to 15 days
Procedure, shortened: (§2)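 Test pots are flooded 3 cm above the soil at treatment, and the test substance is introduced into this standing water. After keeping the flood level and growing plants, treated at the 2-leaf stage, for 13 to 15 days under glass, injury is assessed visually versus controls.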

rice (Oryza sativa) = assay: as above; conditions: 250 g ai/ha, Flood, applied to paddy water, 2-leaf stage, evaluated after 13 to 15 days
Procedure, shortened: as §2

[17] = tested on: ducksalad (Heteranhera limosa); assay: as above; conditions: 250 g ai/ha, Flood, applied to paddy water, 2-leaf stage, evaluated after 13 to 15 days
Procedure, shortened: as §2

[18] = tested on: sedge, umbrella (small-flower umbrella sedge, Cyperus difformis); assay: as above; conditions: 250 g ai/ha, Flood, applied to paddy water, 2-leaf stage, evaluated after 13 to 15 days
Procedure, shortened: as §2

SMILES	Ragweed plant response rating (0 to 100 scale) [1]	Ragweed plant response rating [1]	Barnyardgrass plant response rating (0 to 100 scale) [2]	Barnyardgrass plant response rating [2]	Pigweed plant response rating (0 to 100 scale) [3]	Pigweed plant response rating [3]	Kochia plant response rating (0 to 100 scale) (kochia (Kochia scoparia) [4])	Kochia plant response rating (kochia (Kochia scoparia) [4])	Blackgrass plant response rating (0 to 100 scale) [5]	Blackgrass plant response rating [5]	Galium plant response rating (0 to 100 scale) [6]	Galium plant response rating [6]	Corn plant response rating (0 to 100 scale) (corn (Zea mays))	Corn plant response rating (corn (Zea mays))	Ryegrass, Italian plant response rating (0 to 100 scale) [7]	Ryegrass, Italian plant response rating [7]	Foxtail, Giant plant response rating (0 to 100 scale) [8]	Foxtail, Giant plant response rating [8]	Wheat plant response rating (0 to 100 scale) [9]	Wheat plant response rating [9]	also measured
CO/N=C(/c1c(O)c(C)nn(C)c1=O)c1ccc(F)c2ccccc12 [Compound 75]	100	90	70	20	90	70	90	70	100	90	100	100	20	10	100	90	80	50	80	60	Ragweed plant response rating [10]: 80; Ragweed plant response rating (0 to 100 scale) [10]: 100; Barnyardgrass plant response rating [11]: 30; Barnyardgrass plant response rating (0 to 100 scale) [11]: 90; Pigweed plant response rating [12]: 60; Pigweed plant response rating (0 to 100 scale) [12]: 90; Kochia plant response rating (kochia (Kochia scoparia) [13]): 10; Kochia plant response rating (0 to 100 scale) (kochia (Kochia scoparia) [13]): 90; Ryegrass, Italian plant response rating [14]: 100; Ryegrass, Italian plant response rating (0 to 100 scale) [14]: 100; Foxtail, Giant plant response rating [15]: 70; Foxtail, Giant plant response rating (0 to 100 scale) [15]: 100; Plant response rating, Barnyardgrass (0 to 100 scale, 0 is no effect, 100 is complete control) [16]: 0; Plant response rating, Rice (0 to 100 scale, 0 is no effect, 100 is complete control) (rice (Oryza sativa)): 0; Plant response rating, Ducksalad (0 to 100 scale, 0 is no effect, 100 is complete control) [17]: 0; Plant response rating, Sedge, Umbrella (0 to 100 scale, 0 is no effect, 100 is complete control) [18]: 0
C=CCON=C(c1c(O)c(C)nn(C)c1=O)c1cc(Br)cc2ccccc12 [Compound 115]	100	90	90	80	90	60	60	30	90	80	100	100	70	20	90	80	90	90	40	20	Ragweed plant response rating [10]: 90; Ragweed plant response rating (0 to 100 scale) [10]: 90; Barnyardgrass plant response rating [11]: 90; Barnyardgrass plant response rating (0 to 100 scale) [11]: 100; Pigweed plant response rating [12]: 30; Pigweed plant response rating (0 to 100 scale) [12]: 90; Kochia plant response rating (0 to 100 scale) (kochia (Kochia scoparia) [13]): 10; Ryegrass, Italian plant response rating [14]: 80; Ryegrass, Italian plant response rating (0 to 100 scale) [14]: 90; Foxtail, Giant plant response rating [15]: 90; Foxtail, Giant plant response rating (0 to 100 scale) [15]: 100; Plant response rating, Barnyardgrass (0 to 100 scale, 0 is no effect, 100 is complete control) [16]: 75; Plant response rating, Rice (0 to 100 scale, 0 is no effect, 100 is complete control) (rice (Oryza sativa)): 35; Plant response rating, Ducksalad (0 to 100 scale, 0 is no effect, 100 is complete control) [17]: 80; Plant response rating, Sedge, Umbrella (0 to 100 scale, 0 is no effect, 100 is complete control) [18]: 85
CO/N=C(\c1c(O)c(Cl)nn(C)c1=O)c1cccc2ccccc12 [Compound 129, 6-chloro-5-hydroxy-4-[(Z)-(methoxyimino)-1-naphthalenylmethyl]-2-methyl-3(2H)-pyridazinone]	100	90	50	30	70	40	80	70	70	30	90	80	0	0	10	0	60	40	0	0	Ragweed plant response rating [10]: 70; Ragweed plant response rating (0 to 100 scale) [10]: 100; Barnyardgrass plant response rating [11]: 60; Barnyardgrass plant response rating (0 to 100 scale) [11]: 80; Pigweed plant response rating [12]: 10; Pigweed plant response rating (0 to 100 scale) [12]: 90; Kochia plant response rating (kochia (Kochia scoparia) [13]): 10; Kochia plant response rating (0 to 100 scale) (kochia (Kochia scoparia) [13]): 50; Ryegrass, Italian plant response rating [14]: 0; Ryegrass, Italian plant response rating (0 to 100 scale) [14]: 0; Foxtail, Giant plant response rating [15]: 60; Foxtail, Giant plant response rating (0 to 100 scale) [15]: 80; Plant response rating, Barnyardgrass (0 to 100 scale, 0 is no effect, 100 is complete control) [16]: 0; Plant response rating, Rice (0 to 100 scale, 0 is no effect, 100 is complete control) (rice (Oryza sativa)): 0; Plant response rating, Ducksalad (0 to 100 scale, 0 is no effect, 100 is complete control) [17]: 0; Plant response rating, Sedge, Umbrella (0 to 100 scale, 0 is no effect, 100 is complete control) [18]: 0
